Measurements published in patent US20160030415A1, “TREATMENT AND PROPHYLAXIS OF KIDNEY DISEASES” (priority 2013, published 2016).

Tested on: STZ induced diabetic nephropathy in rats
Test: Study 4: HCQ and its combination with Losartan, Telmisartan, Azilsartan and Ramipril, with Glimepiride control
Assay type: in vivo, Wistar rats
Conditions: for HDL / TC / TG / GSH / TBARS / Total protein kidney / Creatinine / Total protein / Urea: after 8th week; for Glucose Day1 / Glucose Day14 / Glucose Day28 / Glucose Day42 / Glucose Day56: blood; for GSH / TBARS / Total protein kidney: kidney homogenate; for Creatinine / Total protein / Urea: serum
Description: The methods described in Terri et al, Diabetes Volume, 1997, 46:1612-1618, and Takashi et al, Jpn J. Pharmacol, 1997, 75, 59-64, were followed for inducing Diabetes in rats by injecting Streptozotocin. The Efficacy of the drugs was tested in two different models, one involving comparison with diabetic control (i.e. Diabetic Rats not treated with any medication) and the other involving comparison with the anti-diabetic control group (i.e. Diabetic rats administered Glimepiride) in two separate studies.
Wistar rats of either sex weighing 150-200 g were divided randomly into 28 groups consisting of 6 animals each. Diabetes was induced in rats by single administration of streptozotocin (55 mg/kg/i.p) dissolved in 0.1 M-citrate buffer, pH 4.5. Group 1 (normal control) consisted of normal rats that neither received streptozotocin nor any test drug; Group 2 served as Diabetic control; Group 3 was diabetic rats treated with Hydroxychloroquine (35 mg/kg); Group 4 was diabetic rats treated with Hydroxychloroquine (45 mg/kg) and Group 5 was diabetic rats treated with Hydroxychloroquine (70 mg/kg); Group 6 was diabetic rats treated with Losartan (5.5 mg/kg); Group 7 was diabetic rats treated with Losartan (11 mg/kg); Group 8 was diabetic rats treated with combination of Losartan (5.5 mg/kg) and Hydroxychloroquine (45 mg/kg); Group 9 was diabetic rats treated with combination of Losartan (11 mg/kg) and Hydroxychloroquine (35 mg/kg); Group 10 was diabetic rats treated with Ramipril (0.6 mg/kg); Group 11 was diabetic rats treated with Ramipril (0.3 mg/kg); Group 12 was diabetic rats treated with combination of Ramipril (0.6 mg/kg) and Hydroxychloroquine (35 mg/kg); Group 13 was diabetic rats treated with combination of Ramipril (0.3 mg/kg) and Hydroxychloroquine (45 mg/kg); Group 14 was diabetic rats treated with combination of Ramipril (0.6 mg/kg) and Hydroxychloroquine (45 mg/kg); Group 15 was diabetic rats treated with combination of Ramipril (0.3 mg/kg) and Hydroxychloroquine (35 mg/kg); Group 16 was diabetic rats treated with Telmisartan (9.5 mg/kg); Group 17 was diabetic rats treated with Telmisartan (4.5 mg/kg); Group 18 was diabetic rats treated with combination of Telmisartan (9.5 mg/kg) and Hydroxychloroquine (35 mg/kg); Group 19 was diabetic rats treated with combination of Telmisartan (4.5 mg/kg) and Hydroxychloroquine (45 mg/kg); Group 20 was diabetic rats treated with combination of Telmisartan (9.5 mg/kg) and Hydroxychloroquine (45 mg/kg); Group 21 was diabetic rats treated with combination of Telmisartan (4.5 mg/kg) and Hydroxychloroquine (35 mg/kg); Group 22 was diabetic rats treated with Azilsartan (4.5 mg/kg); Group 23 was diabetic rats treated with Azilsartan (2.5 mg/kg); Group 24 was diabetic rats treated with combination of Azilsartan (4.5 mg/kg) and Hydroxychloroquine (35 mg/kg); Group 25 was diabetic rats treated with combination of Azilsartan (2.5 mg/kg) and Hydroxychloroquine (45 mg/kg); Group 26 was diabetic rats treated with combination of Azilsartan (4.5 mg/kg) and Hydroxychloroquine (45 mg/kg); Group 27 was diabetic rats treated with combination of Azilsartan (2.5 mg/kg) and Hydroxychloroquine (35 mg/kg); Group 28 served as Anti-Diabetic control wherein diabetic rats were treated with antidiabetic drug Glimepiride (GLM) (1 mg/kg).
The study drugs were dissolved/suspended in vehicle and administered orally once a day for eight weeks. The diabetes mellitus induced nephropathy was assessed by estimating the level of serum urea, serum creatinine and total serum protein content after completion of eighth week of study. TBARS, GSH and Total Protein were measured as markers of renal oxidative stress in Kidney Homogenate after completion of eighth week of study. Blood glucose levels were also assessed at weekly interval.

[1] = dose mg/kg: HCQ 35, LT 5.5, RM 0.3, TL 4.5, AZ 2.5, alone or combined with HCQ 35
[2] = dose mg/kg: HCQ 45, LT 11, RM 0.6, TL 9.5, AZ 4.5, alone or combined with HCQ 45

`CCOc1nc2cccc(C(=O)O)c2n1Cc1ccc(-c2ccccc2-c2nc(=O)o[nH]2)cc1` [Azilsartan] gave an HDL [1] of 27.17 ± 1.17 mg/dL, a TC [1] of 142 ± 2.1 mg/dL and a TG [1] of 97 ± 5.66 mg/dL. It also gave an HDL [2] of 26.67 ± 1.51 mg/dL, a TC [2] of 141.17 ± 2.32 mg/dL and a TG [2] of 103 ± 3.9 mg/dL. For the same compound, the “Glucose Day1” value [1] was 267.17 ± 12.21 mg/dL, the “Glucose Day1” value [2] was 278.5 ± 14.22 mg/dL and the “Glucose Day14” value [1] was 215.5 ± 14.01 mg/dL. For the same compound, the “Glucose Day14” value [2] was 224.17 ± 17.93 mg/dL, the “Glucose Day28” value [1] was 180 ± 8.00 mg/dL and the “Glucose Day28” value [2] was 179 ± 7.13 mg/dL. For the same compound, the “Glucose Day42” value [1] was 160.67 ± 6.12 mg/dL, the “Glucose Day42” value [2] was 158.67 ± 6.77 mg/dL and the “Glucose Day56” value [1] was 141 ± 6.924 mg/dL. For the same compound, the “Glucose Day56” value [2] was 139.83 ± 4.79 mg/dL, the GSH [1] was 0.86 ± 0.21 nM/mg and the TBARS [1] was 0.6 ± 0.11 nM/mg. The Total protein kidney [1] was 874.5 ± 21.80 µg/mL, the GSH [2] was 1.26 ± 0.44 nM/mg and the TBARS [2] was 0.58 ± 0.14 nM/mg. For the same compound, the Total protein kidney [2] was 837.5 ± 20.15 µg/mL, the Creatinine [1] was 3.61 ± 0.16 mg/dL and the Total protein [1] was 4.76 ± 0.15 g/dL. For the same compound, the Urea [1] was 40.83 ± 2.64 mg/dL, the Creatinine [2] was 3.44 ± 0.28 mg/dL and the Total protein [2] was 4.99 ± 0.25 g/dL. The Urea [2] was 41 ± 3.58 mg/dL.

Work on `CCN(CCO)CCCC(C)Nc1ccnc2cc(Cl)ccc12` (centres unmarked) [Hydroxychloroquine, 2-[{4-[(7-chloroquinolin-4-yl)amino]pentyl}(ethyl)amino]ethanol] yielded an HDL [1] of 29.5 ± 2.17 mg/dL, a TC [1] of 133.5 ± 3.62 mg/dL and a TG [1] of 94.83 ± 2.48 mg/dL. It also gave an HDL [2] of 29 ± 2.19 mg/dL, a TC [2] of 130.33 ± 2.07 mg/dL and a TG [2] of 96.83 ± 2.93 mg/dL. For the same compound, the HDL (dose mg/kg: HCQ 70, GLM 1) was 30.67 ± 1.86 mg/dL, the TC (dose mg/kg: HCQ 70, GLM 1) was 124.67 ± 2.94 mg/dL and the TG (dose mg/kg: HCQ 70, GLM 1) was 90.17 ± 3.49 mg/dL. For the same compound, the “Glucose Day1” value [1] was 268.83 ± 17.77 mg/dL, the “Glucose Day1” value [2] was 277.5 ± 17.74 mg/dL and the “Glucose Day1” value (dose mg/kg: HCQ 70, GLM 1) was 274.5 ± 16.01 mg/dL. The “Glucose Day14” value [1] was 203.33 ± 28.11 mg/dL, the “Glucose Day14” value [2] was 229.17 ± 10.38 mg/dL and the “Glucose Day14” value (dose mg/kg: HCQ 70, GLM 1) was 209.67 ± 21.69 mg/dL. For the same compound, the “Glucose Day28” value [1] was 176.83 ± 29.1 mg/dL, the “Glucose Day28” value [2] was 184.17 ± 14.5 mg/dL and the “Glucose Day28” value (dose mg/kg: HCQ 70, GLM 1) was 169.5 ± 10.48 mg/dL. The “Glucose Day42” value [1] was 165 ± 13.61 mg/dL, the “Glucose Day42” value [2] was 154.17 ± 9.13 mg/dL and the “Glucose Day42” value (dose mg/kg: HCQ 70, GLM 1) was 148.67 ± 8.5 mg/dL. For the same compound, the “Glucose Day56” value [1] was 151.5 ± 7.42 mg/dL, the “Glucose Day56” value [2] was 140 ± 7.56 mg/dL and the “Glucose Day56” value (dose mg/kg: HCQ 70, GLM 1) was 130.83 ± 7.22 mg/dL. The GSH [1] was 0.71 ± 0.16 nM/mg, the TBARS [1] was 0.67 ± 0.11 nM/mg and the Total protein kidney [1] was 865.33 ± 27.9 µg/mL. It also gave a GSH [2] of 0.7 ± 0.17 nM/mg, a TBARS [2] of 0.65 ± 0.13 nM/mg and a Total protein kidney [2] of 831.67 ± 24.15 µg/mL. It also gave a GSH (dose mg/kg: HCQ 70, GLM 1) of 0.67 ± 0.19 nM/mg, a TBARS (dose mg/kg: HCQ 70, GLM 1) of 0.63 ± 0.12 nM/mg and a Total protein kidney (dose mg/kg: HCQ 70, GLM 1) of 752.33 ± 18.8 µg/mL. For the same compound, the Creatinine [1] was 3.11 ± 0.16 mg/dL, the Total protein [1] was 4.52 ± 0.39 g/dL and the Urea [1] was 44.33 ± 1.75 mg/dL. For the same compound, the Creatinine [2] was 2.99 ± 0.34 mg/dL, the Total protein [2] was 5.4 ± 0.36 g/dL and the Urea [2] was 40.83 ± 2.14 mg/dL. It also gave a Creatinine (dose mg/kg: HCQ 70, GLM 1) of 2.68 ± 0.23 mg/dL, a Total protein (dose mg/kg: HCQ 70, GLM 1) of 5.72 ± 0.3 g/dL and a Urea (dose mg/kg: HCQ 70, GLM 1) of 38.17 ± 1.47 mg/dL.

For `CCCCc1nc(Cl)c(CO)n1Cc1ccc(-c2ccccc2-c2nn[nH]n2)cc1` [Losartan], the HDL [1] was 27.5 ± 1.64 mg/dL, the TC [1] was 143.5 ± 3.39 mg/dL and the TG [1] was 100 ± 5.4 mg/dL. The HDL [2] was 28.5 ± 2.88 mg/dL, the TC [2] was 139.83 ± 3.19 mg/dL and the TG [2] was 98.83 ± 3.66 mg/dL. The “Glucose Day1” value [1] was 262.5 ± 25.35 mg/dL, the “Glucose Day1” value [2] was 268.67 ± 15.63 mg/dL and the “Glucose Day14” value [1] was 211.17 ± 21.48 mg/dL. The “Glucose Day14” value [2] was 215.67 ± 18.13 mg/dL, the “Glucose Day28” value [1] was 179.33 ± 7.84 mg/dL and the “Glucose Day28” value [2] was 178 ± 7.92 mg/dL. The “Glucose Day42” value [1] was 161.17 ± 4.71 mg/dL, the “Glucose Day42” value [2] was 152.17 ± 7.28 mg/dL and the “Glucose Day56” value [1] was 146.33 ± 6.65 mg/dL. For the same compound, the “Glucose Day56” value [2] was 139 ± 10.92 mg/dL, the GSH [1] was 0.56 ± 0.23 nM/mg and the TBARS [1] was 0.74 ± 0.1 nM/mg. For the same compound, the Total protein kidney [1] was 893.33 ± 29.92 µg/mL, the GSH [2] was 0.66 ± 0.23 nM/mg and the TBARS [2] was 0.63 ± 0.17 nM/mg. For the same compound, the Total protein kidney [2] was 829.67 ± 25.45 µg/mL, the Creatinine [1] was 3.36 ± 0.32 mg/dL and the Total protein [1] was 4.91 ± 0.2 g/dL. For the same compound, the Urea [1] was 39.83 ± 1.72 mg/dL, the Creatinine [2] was 3.26 ± 0.38 mg/dL and the Total protein [2] was 5.32 ± 0.2 g/dL. It also gave a Urea [2] of 41 ± 2.53 mg/dL.
